# Results taken from ChEMBL document CHEMBL5512623, “Discovery of the novel and potent histamine H1 receptor antagonists for treatment of allergic diseases” (Eur J Med Chem, 2024).
# How the values were obtained:
# [1] = molecular target: Muscarinic acetylcholine receptor M3 (Homo sapiens, UniProt P20309); assay: Antagonist activity at human muscarinic M3 receptor expressed in PathHunter U2OS CHRM3 beta-arrestin cells preincubated for 30 mins followed by agonist addition at 6 times EC80 and measured after 90 to 180 mins by PathHunter assay; assay type: functional, cell-based
# [2] = molecular target: Voltage-gated inwardly rectifying potassium channel KCNH2 (Homo sapiens, UniProt Q12809); assay: Inhibition of hERG in HEK293 cells measured after 5 mins by patch-clamp assay
# [3] = Half life in male Sprague-Dawley rat at 4 mg/kg, iv administered via tail vein and measured upto 24 hrs by LC-MS/MS analysis; assay type: ADME, organism-based; details: in vivo
# [4] = AUC (0 to t) in male Sprague-Dawley rat at 4 mg/kg, iv administered via tail vein and measured upto 24 hrs by LC-MS/MS analysis; assay type: ADME, organism-based; details: in vivo
# [5] = AUC (0 to infinity) in male Sprague-Dawley rat at 4 mg/kg, iv administered via tail vein and measured upto 24 hrs by LC-MS/MS analysis; assay type: ADME, organism-based; details: in vivo
# [6] = Volume of distribution in male Sprague-Dawley rat at 4 mg/kg, iv administered via tail vein and measured upto 24 hrs by LC-MS/MS analysis; assay type: ADME, organism-based; details: in vivo
# [7] = MRT (0 to infinity) in male Sprague-Dawley rat at 4 mg/kg, iv administered via tail vein and measured upto 24 hrs by LC-MS/MS analysis; assay type: ADME, organism-based; details: in vivo
# [8] = Half life in male Sprague-Dawley rat at 25 mg/kg, po measured upto 24 hrs by LC-MS/MS analysis; assay type: ADME, organism-based; details: in vivo
# [9] = Tmax in male Sprague-Dawley rat at 25 mg/kg, po measured upto 24 hrs by LC-MS/MS analysis; assay type: ADME, organism-based; details: in vivo
# [10] = Cmax in male Sprague-Dawley rat at 25 mg/kg, po measured upto 24 hrs by LC-MS/MS analysis; assay type: ADME, organism-based; details: in vivo
# [11] = AUC (0 to t) in male Sprague-Dawley rat at 25 mg/kg, po measured upto 24 hrs by LC-MS/MS analysis; assay type: ADME, organism-based; details: in vivo
# [12] = AUC (0 to infinity) in male Sprague-Dawley rat at 25 mg/kg, po measured upto 24 hrs by LC-MS/MS analysis; assay type: ADME, organism-based; details: in vivo
# [13] = Volume of distribution in male Sprague-Dawley rat at 25 mg/kg, po measured upto 24 hrs by LC-MS/MS analysis; assay type: ADME, organism-based; details: in vivo
# [14] = Clearance in male Sprague-Dawley rat at 25 mg/kg, po measured upto 24 hrs by LC-MS/MS analysis; assay type: ADME, organism-based; details: in vivo
# [15] = MRT (0 to infinity) in male Sprague-Dawley rat at 25 mg/kg, po measured upto 24 hrs by LC-MS/MS analysis; assay type: ADME, organism-based; details: in vivo
# [16] = Oral bioavailability in male Sprague-Dawley rat at 25 mg/kg measured upto 24 hrs by LC-MS/MS analysis; assay type: ADME, organism-based; details: in vivo
# [17] = Apparent permeability across apical to basolateral side in human Caco-2 cells at 5 uM measured at 60 mins; assay type: ADME, cell-based
# [18] = Apparent permeability across basolateral to apical side in human Caco-2 cells at 5 uM measured at 60 mins; assay type: ADME, cell-based
# [19] = Plasma protein binding in human assessed as binding rate at 500 ng/ml prewarmed for 30 mins by LC-MS/MS analysis; assay type: ADME, cell-free; details: read-out: PPB (converted)
# [20] = Plasma protein binding in human assessed as binding rate at 1000 ng/ml prewarmed for 30 mins by LC-MS/MS analysis; assay type: ADME, cell-free; details: read-out: PPB (converted)
# [21] = Plasma protein binding in human assessed as binding rate at 1200 ng/ml prewarmed for 30 mins by LC-MS/MS analysis; assay type: ADME, cell-free; details: read-out: PPB (converted)
# [22] = Plasma protein binding in rat assessed as binding rate at 250 ng/ml prewarmed for 30 mins by LC-MS/MS analysis; assay type: ADME, cell-free; details: read-out: PPB (converted)
# [23] = Plasma protein binding in rat assessed as binding rate at 1000 ng/ml prewarmed for 30 mins by LC-MS/MS analysis; assay type: ADME, cell-free; details: read-out: PPB (converted)
# [24] = Plasma protein binding in rat assessed as binding rate at 1200 ng/ml prewarmed for 30 mins by LC-MS/MS analysis; assay type: ADME, cell-free; details: read-out: PPB (converted)
# [25] = Metabolic stability in Beagle dog liver microsomes at 1 uM measured upto 120 mins by LC-MS/MS analysis; assay type: ADME, Canis lupus familiaris, Microsome; details: 2 h
# [26] = Cmax in female Sprague-Dawley rat brain at 10 mg/kg, IG administered as single dose; assay type: ADME, organism-based; details: po
# [27] = Cmax in male Sprague-Dawley rat brain at 10 mg/kg, IG administered as single dose; assay type: ADME, organism-based; details: po
# [28] = Cmax in female Sprague-Dawley rat plasma at 10 mg/kg, IG administered as single dose; assay type: ADME, organism-based; details: po
# [29] = Cmax in male Sprague-Dawley rat plasma at 10 mg/kg, IG administered as single dose; assay type: ADME, organism-based; details: po
# [30] = Ratio of Cmax in female Sprague-Dawley rat brain to plasma at 10 mg/kg, IG administered as single dose; assay type: ADME, organism-based; details: brain and plasma, po, read-out: BPR
# [31] = Acute toxicity in Sprague-Dawley rat assessed as reduction in animal activity at 700 mg/kg, IG measured for 7 days; assay type: organism-based; details: in vivo, po, 168 h, time 7 day
# [32] = Acute toxicity in Sprague-Dawley rat assessed as lethargy at 700 mg/kg, IG measured for 7 days; assay type: organism-based; details: in vivo, po, 168 h, time 7 day
# [33] = Acute toxicity in Sprague-Dawley rat assessed as weight loss at 700 mg/kg, IG measured for 7 days; assay type: organism-based; details: in vivo, po, 168 h, time 7 day
# [34] = Acute toxicity in IG dosed Sprague-Dawley rat assessed as minimum lethal dose measured for 7 days; assay type: organism-based; details: in vivo, po, 168 h, time 7 day
# [35] = Subacute toxicity in Sprague-Dawley rat assessed as abnormal symptoms at 50 mg/kg, IG administered once a day for 14 days; assay type: organism-based; details: in vivo, po, 336 h, time 14 day
# [36] = Subacute toxicity in Sprague-Dawley rat assessed as organ abnormalities at 50 mg/kg, IG administered once a day for 14 days; assay type: organism-based; details: in vivo, po, 336 h, time 14 day
# [37] = Subacute toxicity in Sprague-Dawley rat assessed as wheezing at 140 mg/kg, IG administered once a day for 14 days; assay type: organism-based; details: in vivo, po, 336 h, time 14 day
# [38] = Subacute toxicity in Sprague-Dawley rat assessed as lethargy at 140 mg/kg, IG administered once a day for 14 days; assay type: organism-based; details: in vivo, po, 336 h, time 14 day
# [39] = Subacute toxicity in Sprague-Dawley rat assessed as ptosis at 140 mg/kg, IG administered once a day for 14 days; assay type: organism-based; details: in vivo, po, 336 h, time 14 day
# [40] = Subacute toxicity in Sprague-Dawley rat assessed as increase in aspartate aminotransferase level in serum at 140 mg/kg, IG administered once a day for 14 days; assay type: organism-based; details: in vivo, po, 336 h, time 14 day
# [41] = Subacute toxicity in Sprague-Dawley rat assessed as increase in spleen to brain ratio at 140 mg/kg, IG administered once a day for 14 days; assay type: organism-based; details: in vivo, po, 336 h, time 14 day
# [42] = Subacute toxicity in Sprague-Dawley rat assessed as effect on ECG at 140 mg/kg, IG administered once a day for 14 days; assay type: organism-based; details: in vivo, po, 336 h, time 14 day
# [43] = Subacute toxicity in Sprague-Dawley rat assessed as effect on white blood cell count at 140 mg/kg, IG administered once a day for 14 days; assay type: organism-based; details: in vivo, po, 336 h, time 14 day
# [44] = Subacute toxicity in Sprague-Dawley rat assessed as effect on lymphocyte count at 140 mg/kg, IG administered once a day for 14 days; assay type: organism-based; details: in vivo, po, 336 h, time 14 day
# [45] = Subacute toxicity in Sprague-Dawley rat assessed as effect on neutrophil count at 140 mg/kg, IG administered once a day for 14 days; assay type: organism-based; details: in vivo, po, 336 h, time 14 day
# Sequence of Voltage-gated inwardly rectifying potassium channel KCNH2 (Q12809 whole entry): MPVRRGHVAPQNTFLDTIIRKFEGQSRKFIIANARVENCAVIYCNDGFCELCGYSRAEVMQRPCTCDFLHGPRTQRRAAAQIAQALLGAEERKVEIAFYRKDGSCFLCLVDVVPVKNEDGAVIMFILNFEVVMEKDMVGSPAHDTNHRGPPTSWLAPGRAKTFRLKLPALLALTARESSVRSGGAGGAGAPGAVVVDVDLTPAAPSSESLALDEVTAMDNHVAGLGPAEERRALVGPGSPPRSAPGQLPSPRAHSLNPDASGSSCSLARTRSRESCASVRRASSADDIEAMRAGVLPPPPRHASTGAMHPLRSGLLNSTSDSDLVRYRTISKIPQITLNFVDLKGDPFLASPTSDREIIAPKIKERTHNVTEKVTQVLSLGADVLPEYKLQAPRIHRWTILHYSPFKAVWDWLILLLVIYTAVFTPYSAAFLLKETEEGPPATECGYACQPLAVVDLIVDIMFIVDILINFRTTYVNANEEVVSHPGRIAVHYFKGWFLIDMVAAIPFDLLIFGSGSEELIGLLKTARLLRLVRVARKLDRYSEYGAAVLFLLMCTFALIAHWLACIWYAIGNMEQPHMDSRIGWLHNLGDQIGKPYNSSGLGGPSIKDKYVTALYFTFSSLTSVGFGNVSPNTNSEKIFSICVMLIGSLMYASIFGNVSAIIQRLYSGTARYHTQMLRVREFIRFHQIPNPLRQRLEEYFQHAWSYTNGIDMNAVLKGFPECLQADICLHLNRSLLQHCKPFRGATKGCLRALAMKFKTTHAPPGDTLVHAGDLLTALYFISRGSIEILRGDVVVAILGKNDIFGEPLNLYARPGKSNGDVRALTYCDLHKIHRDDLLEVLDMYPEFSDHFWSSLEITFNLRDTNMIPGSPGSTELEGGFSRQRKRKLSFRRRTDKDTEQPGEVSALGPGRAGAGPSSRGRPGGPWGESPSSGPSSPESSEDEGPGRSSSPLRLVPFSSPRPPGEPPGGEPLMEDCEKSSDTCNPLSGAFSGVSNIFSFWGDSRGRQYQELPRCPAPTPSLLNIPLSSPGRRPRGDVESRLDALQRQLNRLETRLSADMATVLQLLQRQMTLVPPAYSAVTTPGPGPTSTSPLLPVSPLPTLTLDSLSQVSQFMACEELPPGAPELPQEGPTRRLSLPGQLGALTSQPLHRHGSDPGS
# Sequence of Muscarinic acetylcholine receptor M3 (P20309 whole entry): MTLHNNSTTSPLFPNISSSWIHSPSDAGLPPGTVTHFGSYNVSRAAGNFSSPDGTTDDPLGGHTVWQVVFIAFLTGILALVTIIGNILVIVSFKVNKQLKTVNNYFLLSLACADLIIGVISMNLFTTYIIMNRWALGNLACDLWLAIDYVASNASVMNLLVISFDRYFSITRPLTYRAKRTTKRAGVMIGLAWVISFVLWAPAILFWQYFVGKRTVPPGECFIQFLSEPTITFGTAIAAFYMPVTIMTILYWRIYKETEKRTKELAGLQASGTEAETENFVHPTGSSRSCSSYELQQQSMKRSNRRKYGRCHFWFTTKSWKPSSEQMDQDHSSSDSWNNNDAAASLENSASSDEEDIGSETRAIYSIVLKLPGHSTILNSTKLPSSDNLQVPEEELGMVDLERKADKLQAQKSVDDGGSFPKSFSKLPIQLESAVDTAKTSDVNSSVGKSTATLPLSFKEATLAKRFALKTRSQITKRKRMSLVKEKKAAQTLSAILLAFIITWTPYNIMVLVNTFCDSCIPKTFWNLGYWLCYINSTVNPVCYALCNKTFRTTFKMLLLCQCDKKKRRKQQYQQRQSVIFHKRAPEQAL
smiles,measurement,setting,value
CC(C)(C(=O)O)c1cccc(CCCN2CCC(=C3c4ccc(Cl)cc4CCc4cccnc43)CC2)c1,IC50,[1],> 10 µM
same,IC50,[2],17.6 µM
same,half-life,[3],39.2 min
same,AUC(0-t) at 24 h,[4],1680 ng·h/mL
same,AUC(0-inf),[5],1820 ng·h/mL
same,Vd,[6],1.77 L/kg
same,MRT inf,[7],42 min
same,half-life,[8],243 min
same,Tmax,[9],22.8 min
same,Cmax,[10],1720 ng/mL
same,AUC(0-t) at 24 h,[11],6250 ng·h/mL
same,AUC(0-inf),[12],7210 ng·h/mL
same,Vd,[13],21.26 L/kg
same,CL/F,[14],59.4 mL/min/kg
same,MRT inf,[15],361 min
same,bioavailability,[16],59.5%
same,"Papp A→B at 1 h, 5 µM",[17],5.82 ×10⁻⁶ cm/s
same,"Papp B→A at 1 h, 5 µM",[18],6.06 ×10⁻⁶ cm/s
same,"fraction unbound at 0.5 h, 500 ng/ml",[19],0.321
same,"fraction unbound at 0.5 h, 1000 ng/ml",[20],0.321
same,"fraction unbound at 0.5 h, 1200 ng/ml",[21],0.284
same,"fraction unbound at 0.5 h, 250 ng/ml",[22],0.346
same,"fraction unbound at 0.5 h, 1000 ng/ml",[23],0.327
same,"fraction unbound at 0.5 h, 1200 ng/ml",[24],0.302
same,Stability,[25],Stable
same,Cmax,[26],126 ng/g
same,Cmax,[27],15.8 ng/g
same,Cmax,[28],1930 ng/g
same,Cmax,[29],239 ng/g
same,Kp,[30],0.066
same,Activity,[31],Toxic
same,Activity,[32],Toxic
same,Activity,[33],Toxic
same,MLD,[34],350 mg/kg
same,Activity,[35],Non-Toxic
same,Activity,[36],Non-Toxic
same,Activity,[37],Toxic
same,Activity,[38],Toxic
same,Activity,[39],Toxic
same,Activity,[40],Toxic
same,Activity,[41],Toxic
same,Activity,[42],Non-Toxic
same,Activity,[43],Non-Toxic
same,Activity,[44],Non-Toxic
same,Activity,[45],Non-Toxic
